Data taken from the supplement of paper PMC10307832.

Key:
Test in all cases: relative viability (nuclei count vs DMSO), 5 days (fraction); higher = more cells survive
Entinostat + Vorinostat = compound: Nc1ccccc1NC(=O)c1ccc(CNC(=O)OCc2cccnc2)cc1 [Entinostat] + O=C(CCCCCCC(=O)Nc1ccccc1)NO [Vorinostat] (partner 1 µM)
How it was run: (§1)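 Relative viability is defined as nuclei in treated wells over nuclei in vehicle wells. Duplicate plates were run and medians reported. Lung cancer cell lines in 1536-well plates were dosed by pin tool one day after seeding, with one drug or with a fixed anchor-drug dose plus five library-drug doses (not always all listed) in √10 steps, and nuclei were counted after 5 days.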

SGI-1776 + OSI-027 = compound: CN1CCC(CNc2ccc3ncc(-c4cccc(OC(F)(F)F)c4)n3n2)CC1 [SGI-1776] + COc1cccc2cc(-c3nc([C@H]4CC[C@H](C(=O)O)CC4)n4ncnc(N)c34)[nH]c12 [OSI-027] (partner 0.5 µM)
How it was run: as §1

Entinostat + Pictilisib = compound: Nc1ccccc1NC(=O)c1ccc(CNC(=O)OCc2cccnc2)cc1 [Entinostat] + CS(=O)(=O)N1CCN(Cc2cc3nc(-c4cccc5[nH]ncc45)nc(N4CCOCC4)c3s2)CC1 [Pictilisib] (partner 1 µM)
How it was run: as §1

[1] = compound: C1COCCN1C2=NC(=NC3=C2OC4=C3C=CC=N4)C5=CC(=CC=C5)NC(=O)C6=CN=C(C=C6)N + Cc1cc(Nc2cc(N3CCN(C)CC3)nc(Sc3ccc(NC(=O)C4CC4)cc3)n2)n[nH]1 [Tozasertib] (partner 0.1 µM)
How it was run: as §1

Cell Line	relative viability (Entinostat + Vorinostat; first compound 0.02 µM)	relative viability (Entinostat + Vorinostat; first compound 0.06325 µM)	relative viability (Entinostat + Vorinostat; first compound 0.2 µM)	relative viability (Entinostat + Vorinostat; first compound 0.6325 µM)	relative viability (Entinostat + Vorinostat; first compound 2 µM)	relative viability (SGI-1776 + OSI-027; first compound 0.08 µM)	relative viability (SGI-1776 + OSI-027; first compound 0.8 µM)	relative viability (SGI-1776 + OSI-027; first compound 2.53 µM)	relative viability (SGI-1776 + OSI-027; first compound 8 µM)	relative viability (Entinostat + Pictilisib; first compound 0.02 µM)	relative viability (Entinostat + Pictilisib; first compound 0.06325 µM)	relative viability (Entinostat + Pictilisib; first compound 0.2 µM)	relative viability (Entinostat + Pictilisib; first compound 0.6325 µM)	relative viability (Entinostat + Pictilisib; first compound 2 µM)	relative viability ([1]; first compound 0.02 µM)	relative viability ([1]; first compound 0.06325 µM)	relative viability ([1]; first compound 0.2 µM)	relative viability ([1]; first compound 0.6325 µM)	relative viability ([1]; first compound 2 µM)
201T	0.995	1.07	0.95	0.691	0.491	0.823	0.703	0.708	0.6	0.708	0.662	0.625	0.532	0.467	0.959	1.04	0.915	0.913	0.452
A549										0.551	0.555	0.451	0.364	0.2					
A-427	0.87	0.875	0.864	0.781	0.617	0.543	0.481	0.479	0.357	0.67	0.837	0.65	0.757	0.589	0.187	0.225	0.199	0.175	0.219
ABC-1	1.34	1.35	0.854	0.759	0.511	0.401	0.552	0.472	0.407	0.668	1.07	0.7	0.452	0.279	0.177	0.183	0.167	0.406	0.222
BEN	0.632	0.571	0.553	0.459	0.384	0.316	0.289	0.264	0.323	0.594	0.673	0.453	0.282	0.188	0.593	0.444	0.488	0.513	0.386
CAL-12T	0.606	0.892	0.734	0.52	0.423	0.771	0.592	0.652	0.481	0.537	0.546	0.544	0.303	0.323	0.325	0.27	0.206	0.24	0.177
COR-L23	0.368	0.503	0.423	0.208	0.238	0.781	0.87	0.74	0.582	0.714	0.728	0.588	0.257	0.141	0.219	0.223	0.143	0.181	0.159
COR-L 105	0.993	0.986	0.851	0.541	0.356	0.746	0.716	0.658	0.38	0.414	0.425	0.38	0.346	0.262	0.325	0.352	0.329	0.359	0.31
Calu-6										0.814	0.934	0.864	0.615	0.383					
ChaGo-K-1	0.765	0.763	0.768	0.626	0.464	0.619	0.61	0.39	0.413	0.917	0.645	0.68	0.411	0.471	0.217	0.23	0.197	0.228	0.224
EBC-1										0.313	0.363	0.193	0.12	0.0976					
EKVX	0.801	0.654	0.65	0.467	0.42	0.707	0.736	0.755	0.612	0.441	0.517	0.36	0.298	0.217	0.396	0.391	0.34	0.408	0.236
EMC-BAC-2	0.969	0.433	0.6	0.331	0.218	0.355	0.371	0.363	0.319	0.579	0.595	0.628	0.352	0.289	0.302	0.289	0.26	0.299	0.303
EPLC-272H	0.483	0.397	0.33	0.236	0.139	0.32	0.249	0.306	0.274	0.419	0.37	0.327	0.219	0.254	0.249	0.173	0.175	0.223	0.199
H3255	0.902	0.303	0.65	0.483	0.37	0.65	0.643	0.651	0.555	0.475	0.395	0.301	0.202	0.168	0.779	0.639	0.736	0.847	0.957
HARA	0.541	0.482	0.329	0.324	0.182	0.681	0.638	0.64	0.412	0.428	0.533	0.442	0.368	0.219	0.0879	0.0809	0.112	0.0875	0.125
